Assay results reported in US9211310B2, “Use of a Chinese medicine composition in preparing medicaments for treating secondary prevention of myocardial infarction” (TASLY PHARMACEUTICAL GROUP CO., LTD, priority 2010, dated 2015).

Tested on: patients after acute myocardial infarction
Experiment: TCM symptom score, total and single (chest pain, chest tightness, short breath, fatigue, palpitation, spontaneous perspiration, pale complexion), same clinical trial
Type: in vivo, human
Design: total score of TCM symptom, Mean / total score of TCM symptom, Min / total score of TCM symptom, Max / total score of TCM symptom, Md / change of total score of TCM symptom, Mean / change of total score of TCM symptom, Max / change of total score of TCM symptom, Md: scale not given here
Details: PP
Description: 3508 patients who were in accordance with the diagnostic standards of AMI for 28 days to 2 years and differentiated as Qi deficiency and blood stagnation syndrome by TCM were studied. 0.5 g Chinese medicine composition prepared by the method of EXAMPLE 1 (Coded as QSYQ) was administrated half an hour after meal, 3 times per day.
They included the overall survival time, angina pectoris score, TCM symptom score and life quality score, where angina pectoris score, TCM symptom score and life quality score were evaluated at randomization, in 1st, 3rd, 6th, 9th, 12th month after treatment and 18th month after follow-up.
The analysis method referred to the angina pectoris score.

[1] = 6 months after treatment-baseline
[2] = 9 months after treatment-baseline

For `CC(=O)Oc1ccccc1C(=O)O` [Control group, aspirine], the “change of spontaneous perspiration 0, number of patients” value [1] was 774, the “change of spontaneous perspiration 0, percent of patients” value [1] was “(54.32%)” and the “change of spontaneous perspiration 1, number of patients” value [1] was 414. The “change of spontaneous perspiration 1, percent of patients” value [1] was “(29.05%)”, the “change of spontaneous perspiration 2, number of patients” value [1] was 88 and the “change of spontaneous perspiration 2, percent of patients” value [1] was “(6.18%)”. For the same molecule, the “change of spontaneous perspiration 3, number of patients” value [1] was 24, the “change of spontaneous perspiration 3, percent of patients” value [1] was “(1.68%)” and the “change of spontaneous perspiration −1, number of patients” value [1] was 105. For the same molecule, the “change of spontaneous perspiration −1, percent of patients” value [1] was “(7.37%)”, the “change of spontaneous perspiration −2, number of patients” value [1] was 20 and the “change of spontaneous perspiration −2, percent of patients” value [1] was “(1.40%)”. For the same molecule, the “change of spontaneous perspiration −3, number of patients” value [1] was 0, the “change of spontaneous perspiration −3, percent of patients” value [1] was “(0.00%)” and the “change of total score of TCM symptom, Max” value [1] was 19.00. For the same molecule, the “change of total score of TCM symptom, Md” value [1] was −3.00, the “change of total score of TCM symptom, Mean” value [1] was −4.11 and the “change of total score of TCM symptom, Min” value [1] was −28.00. For the same molecule, the “distribution of total score of TCM symptom: Medium, number of patients” value (9 months after treatment) was 323, the “distribution of total score of TCM symptom: Medium, percentage of patients” value (9 months after treatment) was “(22.84%)” and the “distribution of total score of TCM symptom: Mild, number of patients” value (9 months after treatment) was 1088. The “distribution of total score of TCM symptom: Mild, percentage of patients” value (9 months after treatment) was “(76.94%)”, the “distribution of total score of TCM symptom: Severe, number of patients” value (9 months after treatment) was 3 and the “distribution of total score of TCM symptom: Severe, percentage of patients” value (9 months after treatment) was “(0.21%)”. For the same molecule, the “fatigue score 0, % of patients” value (9 months after treatment) was “(35.22%)”, the “fatigue score 0, number of patients” value (9 months after treatment) was 498 and the “fatigue score 2, % of patients” value (9 months after treatment) was “(60.61%)”. The “fatigue score 2, number of patients” value (9 months after treatment) was 857, the “fatigue score 4, % of patients” value (9 months after treatment) was “(3.47%)” and the “fatigue score 4, number of patients” value (9 months after treatment) was 49. For the same molecule, the “fatigue score 6, % of patients” value (9 months after treatment) was “(0.71%)”, the “fatigue score 6, number of patients” value (9 months after treatment) was 10 and the “pale complexion score 0, number of patients” value (9 months after treatment) was 788. The “pale complexion score 0, percent of patients” value (9 months after treatment) was “(55.69%)”, the “pale complexion score 1, number of patients” value (9 months after treatment) was 520 and the “pale complexion score 1, percent of patients” value (9 months after treatment) was “(36.75%)”. The “pale complexion score 2, number of patients” value (9 months after treatment) was 101, the “pale complexion score 2, percent of patients” value (9 months after treatment) was “(7.14%)” and the “pale complexion score 3, number of patients” value (9 months after treatment) was 6. The “pale complexion score 3, percent of patients” value (9 months after treatment) was “(0.42%)”, the “palpitation score 0, number of patients” value (9 months after treatment) was 496 and the “palpitation score 0, percent of patients” value (9 months after treatment) was “(35.05%)”. For the same molecule, the “palpitation score 2, number of patients” value (9 months after treatment) was 782, the “palpitation score 2, percent of patients” value (9 months after treatment) was “(55.27%)” and the “palpitation score 4, number of patients” value (9 months after treatment) was 122. The “palpitation score 4, percent of patients” value (9 months after treatment) was “(8.62%)”, the “palpitation score 6, number of patients” value (9 months after treatment) was 15 and the “palpitation score 6, percent of patients” value (9 months after treatment) was “(1.06%)”. The “short breath score 0, % of patients” value (9 months after treatment) was “(29.42%)”, the “short breath score 0, number of patients” value (9 months after treatment) was 416 and the “short breath score 3, % of patients” value (9 months after treatment) was “(58.27%)”. The “short breath score 3, number of patients” value (9 months after treatment) was 824, the “short breath score 6, % of patients” value (9 months after treatment) was “(11.95%)” and the “short breath score 6, number of patients” value (9 months after treatment) was 169. For the same molecule, the “short breath score 9, % of patients” value (9 months after treatment) was “(0.35%)”, the “short breath score 9, number of patients” value (9 months after treatment) was 5 and the “spontaneous perspiration score 0, number of patients” value (9 months after treatment) was 678. The “spontaneous perspiration score 0, percent of patients” value (9 months after treatment) was “(47.95%)”, the “spontaneous perspiration score 1, number of patients” value (9 months after treatment) was 652 and the “spontaneous perspiration score 1, percent of patients” value (9 months after treatment) was “(46.11%)”. For the same molecule, the “spontaneous perspiration score 2, number of patients” value (9 months after treatment) was 79, the “spontaneous perspiration score 2, percent of patients” value (9 months after treatment) was “(5.59%)” and the “spontaneous perspiration score 3, number of patients” value (9 months after treatment) was 5. For the same molecule, the “spontaneous perspiration score 3, percent of patients” value (9 months after treatment) was “(0.35%)”, the “total score of TCM symptom, Max” value (9 months after treatment) was 37.00 and the “total score of TCM symptom, Md” value (9 months after treatment) was 8.00. For the same molecule, the “total score of TCM symptom, Mean” value (9 months after treatment) was 8.88, the “total score of TCM symptom, Min” value (9 months after treatment) was 0.00 and the “change of fatigue 0, % of patients” value [2] was “(48.12%)”. The “change of fatigue 0, number of patients” value [2] was 679, the “change of fatigue 2, % of patients” value [2] was “(35.65%)” and the “change of fatigue 2, number of patients” value [2] was 503. The “change of fatigue 4, % of patients” value [2] was “(7.94%)”, the “change of fatigue 4, number of patients” value [2] was 112 and the “change of fatigue 6, % of patients” value [2] was “(1.28%)”. The “change of fatigue 6, number of patients” value [2] was 18, the “change of fatigue −2, % of patients” value [2] was “(6.52%)” and the “change of fatigue −2, number of patients” value [2] was 92. For the same molecule, the “change of fatigue −4, % of patients” value [2] was “(0.50%)”, the “change of fatigue −4, number of patients” value [2] was 7 and the “change of fatigue −6, % of patients” value [2] was “(0.00%)”. For the same molecule, the “change of fatigue −6, number of patients” value [2] was 0, the “change of pale complexion 0, number of patients” value [2] was 1049 and the “change of pale complexion 0, percent of patients” value [2] was “(74.66%)”. For the same molecule, the “change of pale complexion 1, number of patients” value [2] was 316, the “change of pale complexion 1, percent of patients” value [2] was “(22.49%)” and the “change of pale complexion −1, number of patients” value [2] was 40. For the same molecule, the “change of pale complexion −1, percent of patients” value [2] was “(2.85%)”, the “change of palpitation 0, number of patients” value [2] was 749 and the “change of palpitation 0, percent of patients” value [2] was “(53.12%)”. For the same molecule, the “change of palpitation 1, number of patients” value [2] was 493, the “change of palpitation 1, percent of patients” value [2] was “(34.96%)” and the “change of palpitation 2, number of patients” value [2] was 71. For the same molecule, the “change of palpitation 2, percent of patients” value [2] was “(5.04%)”, the “change of palpitation 3, number of patients” value [2] was 6 and the “change of palpitation 3, percent of patients” value [2] was “(0.43%)”. For the same molecule, the “change of palpitation −1, number of patients” value [2] was 87, the “change of palpitation −1, percent of patients” value [2] was “(6.17%)” and the “change of palpitation −2, number of patients” value [2] was 4. For the same molecule, the “change of palpitation −2, percent of patients” value [2] was “(0.28%)”, the “change of short breath 0, % of patients” value [2] was “(56.60%)” and the “change of short breath 0, number of patients” value [2] was 798. The “change of short breath 2, % of patients” value [2] was “(33.33%)”, the “change of short breath 2, number of patients” value [2] was 470 and the “change of short breath 4, % of patients” value [2] was “(3.83%)”. The “change of short breath 4, number of patients” value [2] was 54, the “change of short breath 6, % of patients” value [2] was “(0.50%)” and the “change of short breath 6, number of patients” value [2] was 7. The “change of short breath −2, % of patients” value [2] was “(5.53%)”, the “change of short breath −2, number of patients” value [2] was 78 and the “change of short breath −4, % of patients” value [2] was “(0.14%)”. The “change of short breath −4, number of patients” value [2] was 2, the “change of short breath −6, % of patients” value [2] was “(0.07%)” and the “change of short breath −6, number of patients” value [2] was 1. The “change of spontaneous perspiration 0, number of patients” value [2] was 717, the “change of spontaneous perspiration 0, percent of patients” value [2] was “(50.85%)” and the “change of spontaneous perspiration 1, number of patients” value [2] was 434. For the same molecule, the “change of spontaneous perspiration 1, percent of patients” value [2] was “(30.78%)”, the “change of spontaneous perspiration 2, number of patients” value [2] was 105 and the “change of spontaneous perspiration 2, percent of patients” value [2] was “(7.45%)”. The “change of spontaneous perspiration 3, number of patients” value [2] was 26, the “change of spontaneous perspiration 3, percent of patients” value [2] was “(1.84%)” and the “change of spontaneous perspiration −1, percent of patients” value [2] was “(8.65%)”. For the same molecule, the “change of spontaneous perspiration −2, number of patients” value [2] was 6.
